PubChem BioAssay AID248 (DTP/NCI, 2004)
“And” between values parts separate entries of the source, which are not always exact repeats. Equal entries are not always repeated. Inconclusive results and toxic doses are left out. Rule as the data show it: active = T/C of 150% or more; inactive = T/C below 125%.

Tested on: L1210 leukemia ip in BDF1 mice, survival T/C
Assay: NCI In Vivo Anticancer Drug Screen. Data for tumor model L1210 Leukemia (intraperitoneal) in B6D2F1 (BDF1) mice
Conditions: endpoint: mean survival time, higher = longer survival
In short: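 Tumor was transplanted into mice, which were then dosed with test compound or vehicle alone. Survival was recorded for each group, and the treated figure was expressed relative to the control figure.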

[1] = dose: 400.0 mg/kg/injection, schedule: Q01DX001 (ip), vehicle: carboxymethylcellulose (CMC)
[2] = dose: 100.0 mg/kg/injection, schedule: Q01DX009 (ip), vehicle: saline
[3] = dose: 200.0 mg/kg/injection, schedule: Q01DX009 (ip), vehicle: saline
[4] = dose: 100.0 mg/kg/injection, schedule: Q01DX009 (ip), vehicle: saline with Tween-80
[5] = dose: 200.0 mg/kg/injection, schedule: Q01DX009 (ip), vehicle: saline with Tween-80
[6] = dose: 400.0 mg/kg/injection, schedule: Q01DX009 (ip), vehicle: saline with Tween-80
[7] = dose: 100.0 mg/kg/injection, schedule: Q04DX002 (ip), vehicle: Klucel (hydroxypropylcellulose) (HPC)
[8] = dose: 200.0 mg/kg/injection, schedule: Q04DX002 (ip), vehicle: Klucel (hydroxypropylcellulose) (HPC)
[9] = dose: 100.0 mg/kg/injection, schedule: Q01DX009 (ip), vehicle: Klucel (hydroxypropylcellulose) (HPC)
[10] = dose: 200.0 mg/kg/injection, schedule: Q01DX009 (ip), vehicle: Klucel (hydroxypropylcellulose) (HPC)
[11] = dose: 400.0 mg/kg/injection, schedule: Q01DX009 (ip), vehicle: Klucel (hydroxypropylcellulose) (HPC)
[12] = dose: 100.0 mg/kg/injection, schedule: Q04DX003 (ip), vehicle: saline
[13] = dose: 200.0 mg/kg/injection, schedule: Q04DX003 (ip), vehicle: saline
[14] = dose: 400.0 mg/kg/injection, schedule: Q04DX003 (ip), vehicle: saline
[15] = dose: 100.0 mg/kg/injection, schedule: Q04DX003 (ip), vehicle: saline with Tween-80
[16] = dose: 200.0 mg/kg/injection, schedule: Q04DX003 (ip), vehicle: saline with Tween-80
[17] = dose: 400.0 mg/kg/injection, schedule: Q04DX003 (ip), vehicle: saline with Tween-80
[18] = dose: 100.0 mg/kg/injection, schedule: Q01DX001 (ip), vehicle: saline
[19] = dose: 200.0 mg/kg/injection, schedule: Q01DX001 (ip), vehicle: saline
[20] = dose: 400.0 mg/kg/injection, schedule: Q01DX001 (ip), vehicle: saline

Measured: T/C

CC12CCC(O)CC1CCC1C2CCC2(C)C1CC1NC12 (configuration not stated)
inactive: dose: 100.0 mg/kg/injection, schedule: Q01DX001 (sc), vehicle: steriod suspending solution 92 % of control | dose: 200.0 mg/kg/injection, schedule: Q01DX001 (sc), vehicle: steriod suspending solution 94 % of control

CC(C)C(C=NCC(CCN1CCOCC1)(c1ccc2ccccc2c1)C(C)C)(CCN1CCOCC1)c1ccc2ccccc2c1 (configuration not stated)
inactive: dose: 25.0 mg/kg/injection, schedule: Q04DX002 (ip), vehicle: saline with Tween-80 92 % of control | dose: 50.0 mg/kg/injection, schedule: Q04DX002 (ip), vehicle: saline with Tween-80 98 % of control | dose: 100.0 mg/kg/injection, schedule: Q04DX002 (ip), vehicle: saline with Tween-80 92 % of control

COC1C(O)C(CO)OC1n1cnc2c(=S)nc(N)[nH]c21 (configuration not stated)
active: dose: 266.0 mg/kg/injection, schedule: Q01DX001 (ip), vehicle: carboxymethylcellulose (CMC) 153 % of control | [1] 157 % of control | dose: 600.0 mg/kg/injection, schedule: Q01DX001 (ip), vehicle: carboxymethylcellulose (CMC) 153 % of control

CCOC(=O)C1CCCCCC1=O (configuration not stated)
inactive: dose: 50.0 mg/kg/injection, schedule: Q01DX009 (ip), vehicle: saline 110 % of control | [2] 98 % of control | dose: 100.0 mg/kg/injection, schedule: Q04DX003 (ip), vehicle: alcohol 102 % of control | [3] 95 % of control | dose: 200.0 mg/kg/injection, schedule: Q04DX003 (ip), vehicle: alcohol 103 % of control | dose: 400.0 mg/kg/injection, schedule: Q04DX003 (ip), vehicle: alcohol 100 % of control

CCOC(=O)C(C#N)CCC#N (configuration not stated)
inactive: [4] 113 % of control | [5] 98 % of control | [6] 104 % of control

CCCCC(CC)CNCC(O)CNCC(CC)CCCC (configuration not stated)
inactive: dose: 50.0 mg/kg/injection, schedule: Q01DX009 (ip), vehicle: Klucel (hydroxypropylcellulose) (HPC) 88 % of control | [7] 108 % of control | [8] 101 % of control

CCC(=O)c1c(C)c(C)cc2ccccc12
inactive: dose: 100.0 mg/kg/injection, schedule: Q01DX009 (ip), vehicle: other 97 % of control | dose: 200.0 mg/kg/injection, schedule: Q01DX009 (ip), vehicle: other 95 % of control | dose: 400.0 mg/kg/injection, schedule: Q01DX009 (ip), vehicle: other 108 % of control

Cc1nc(N)nc(N)c1Oc1ccc(Cl)cc1
inactive: dose: 30.0 mg/kg/injection, schedule: Q01DX Z (ip), vehicle: saline 96 % of control | dose: 60.0 mg/kg/injection, schedule: Q01DX Z (ip), vehicle: saline 98 % of control | dose: 120.0 mg/kg/injection, schedule: Q01DX Z (ip), vehicle: saline 102 % of control

Cc1cccc(Cl)c1NC(=O)N(Cc1ccccc1)Cc1ccccc1
inactive: [9] 100 % of control | [10] 105 % of control | [11] 97 % of control

CCOC(=O)C(c1ccsc1)C(C(=O)OCC)c1cccs1 (configuration not stated)
inactive: dose: 100.0 mg/kg/injection, schedule: Q01DX001 (ip), vehicle: saline with Tween-80 92 % of control | dose: 200.0 mg/kg/injection, schedule: Q01DX001 (ip), vehicle: saline with Tween-80 98 % of control | dose: 400.0 mg/kg/injection, schedule: Q01DX001 (ip), vehicle: saline with Tween-80 92 % of control

OC1OC(CF)C(O)C(O)C1O (configuration not stated)
inactive: [12] 104 % of control | [13] 115 % of control | [14] 118 % of control

CCCCCCCCC(=O)Nc1nc2c(ncn2C2OC(COC(C)=O)C(OC(C)=O)C2OC(C)=O)c(=O)[nH]1 (configuration not stated)
inactive: dose: 100.0 mg/kg/injection, schedule: Q01DX005 (ip), vehicle: saline 92 % of control and 97 % of control | dose: 200.0 mg/kg/injection, schedule: Q01DX005 (ip), vehicle: saline 111 % of control and 97 % of control

C[n+]1ccnc2ccccc21
inactive: dose: 10.0 mg/kg/injection, schedule: Q01DX009 (ip), vehicle: saline with Tween-80 105 % of control | dose: 20.0 mg/kg/injection, schedule: Q01DX009 (ip), vehicle: saline with Tween-80 105 % of control | dose: 40.0 mg/kg/injection, schedule: Q01DX009 (ip), vehicle: saline with Tween-80 104 % of control

CN(N(P(c1ccccc1)c1ccccc1)P(c1ccccc1)c1ccccc1)P(c1ccccc1)c1ccccc1
inactive: dose: 100.0 mg/kg/injection, schedule: Q01DX001 (ip), vehicle: steriod suspending solution 110 % of control | dose: 400.0 mg/kg/injection, schedule: Q01DX001 (ip), vehicle: steriod suspending solution 94 % of control

CCOC(=O)C(CN(CC)CC)c1ccccc1 (configuration not stated)
inactive: dose: 88.8 mg/kg/injection, schedule: Q01DX001 (ip), vehicle: carboxymethylcellulose (CMC) 97 % of control and 105 % of control | dose: 100.0 mg/kg/injection, schedule: Q01DX001 (ip), vehicle: carboxymethylcellulose (CMC) 118 % of control | dose: 133.0 mg/kg/injection, schedule: Q01DX001 (ip), vehicle: carboxymethylcellulose (CMC) 97 % of control and 98 % of control | dose: 200.0 mg/kg/injection, schedule: Q01DX001 (ip), vehicle: carboxymethylcellulose (CMC) 105 % of control and 109 % of control | dose: 300.0 mg/kg/injection, schedule: Q01DX001 (ip), vehicle: carboxymethylcellulose (CMC) 98 % of control and 106 % of control | [1] 115 % of control

CC(=O)/C(N=Nc1ccc(S(=O)(=O)c2ccc(N=N/C(C(C)=O)=C(/C)O)cc2)cc1)=C(\C)O
inactive: [15] 100 % of control | [16] 93 % of control | [17] 96 % of control

CN1CCC(O)(C#N)CC1
inactive: dose: 7.5 mg/kg/injection, schedule: Q01DX001 (ip), vehicle: saline 101 % of control | dose: 15.0 mg/kg/injection, schedule: Q01DX001 (ip), vehicle: saline 106 % of control

CCOC(=O)/C=C/c1c[nH]c(=O)[nH]c1=O
inactive: [2] 109 % of control | [12] 103 % of control | [3] 111 % of control | [13] 97 % of control | dose: 400.0 mg/kg/injection, schedule: Q01DX009 (ip), vehicle: saline 105 % of control | [14] 94 % of control

[I][Ga]([I])[I]
inactive: [18] 101 % of control | [19] 108 % of control | [20] 111 % of control

O=C(O)C1C2CC3C(OC(=O)C31)C2Br (configuration not stated)
inactive: [18] 104 % of control | [4] 91 % of control | [15] 91 % of control | [19] 94 % of control | [5] 96 % of control | [16] 100 % of control | [20] 97 % of control | [6] 91 % of control | [17] 104 % of control

O=C(/C=C/c1ccccc1)Nc1ccccc1C(F)(F)F
inactive: [9] 98 % of control | [10] 104 % of control | [11] 101 % of control

CCOC(=O)c1ccc(NCC(=N)N)cc1
inactive: dose: 100.0 mg/kg/injection, schedule: Q01DX001 (ip), vehicle: saline sonified 103 % of control | dose: 200.0 mg/kg/injection, schedule: Q01DX001 (ip), vehicle: saline sonified 100 % of control

O=C(NCCCl)Nc1cccc(C(F)(F)F)c1
inactive: [15] 104 % of control | [16] 107 % of control | [17] 113 % of control

O=C(N/N=C/c1ccc2c(c1)OCO2)c1ccncc1
inactive: [4] 102 % of control | [5] 94 % of control | [6] 104 % of control

CCN(CC)CCCC(C)Nc1c2ccc(Cl)cc2nc2ccc(F)cc12 (configuration not stated)
inactive: dose: 44.0 mg/kg/injection, schedule: Q01DX Z (ip), vehicle: saline 111 % of control | dose: 66.0 mg/kg/injection, schedule: Q01DX Z (ip), vehicle: saline 117 % of control | dose: 100.0 mg/kg/injection, schedule: Q01DX Z (ip), vehicle: saline 117 % of control

c1ccc(SCc2cccnc2)nc1
inactive: [18] 97 % of control | [19] 88 % of control | [20] 94 % of control

O=C(Oc1c(-c2ccccc2)[nH]c2ccccc12)c1ccc([N+](=O)[O-])cc1
inactive: [7] 104 % of control | [8] 101 % of control | dose: 400.0 mg/kg/injection, schedule: Q04DX002 (ip), vehicle: Klucel (hydroxypropylcellulose) (HPC) 90 % of control

Nc1ccccc1Sc1c(N)cc2c3c(cccc13)C(=O)NC2=O
inactive: [9] 90 % of control | [10] 90 % of control | [11] 94 % of control

CCCCNP(=S)(NCCCC)c1ccccc1
inactive: [18] 98 % of control | [19] 93 % of control | [20] 95 % of control
